Holding throughout (assay type): cell-based
For experiment [1], the system named is gram-positive and gram-negative bacteria. Briefly: antibacterial spectrum and relative activity in vitro. The settings on record: for antibacterial spectrum in vitro: compared with gentamicin C1, C1a and C2.
The subject of experiment [2] is gram positive bacteria (e.g. Staphylococcus aureus) and gram negative bacteria (e.g. Escherichia coli and Pseudomonas aeruginosa). Briefly: antibacterial activity determined by standard dilution tests. The settings on record: including bacteria resistant to the parent compounds.
The test system of the next experiment is Bacillus subtilis 663. Briefly: in vitro minimal inhibitory concentration (MIC), standard tube dilution method. The settings on record: strain 663, Mueller-Hinton broth. The text has this:
(§1) In Table 1, set forth below is shown the in vitro minimal inhibitory concentration (MIC) of gentamicin C2a against representative gram-positive and gram-negative bacteria. The results are derived using the standard tube dilution method in Mueller-Hinton broth.
(§2) In Table 2, set forth below is shown the in vitro minimal inhibitory concentration (MIC) of gentamicin C2b against representative gram-positive and gram-negative bacteria. The results are derived using the standard tube dilution method in Mueller-Hinton broth.

A further experiment concerns Escherichia coli. The description is as above.
From the text: as §1, §2

The subject of a further experiment is Pseudomonas aeruginosa. The experiment is described as above.
From the text: as §1, §2

In a further experiment the test system is Salmonella typhi. B. The experiment is described as above. The settings on record: Salmonella enterica.
From the text: as §1, §2

In the next experiment the test system is Staphylococcus aureus. Described as above. The settings on record: Mueller-Hinton broth.
From the text: as §1, §2

In a further experiment the test system is Klebsiella pneumoniae. The description is as above.
From the text: as §1, §2

[3] abbreviates: ATCC10536, strain ATCC 10536, Mueller-Hinton broth.
[4] abbreviates: strain JR66, gentamicin resistant, Mueller-Hinton broth.
The mark [5] stands for this setting: strain LA 290/R55, gentamicin resistant, Mueller-Hinton broth.
The mark [6] stands for this setting: strain 20, Mueller-Hinton broth.
Where [7] appears, read: strain 762, Mueller-Hinton broth.
Setting [8] is: strain 3223, Mueller-Hinton broth.
The mark [9] stands for this setting: strain St 138, gentamicin resistant, Mueller-Hinton broth.
Setting [10] is: strain Travers, gentamicin resistant, Mueller-Hinton broth.
The mark [11] stands for this setting: strain 17, Mueller-Hinton broth, read-out: MIC.

The structures appear in SMILES notation. In brackets after ≈: the same amount, converted by molar mass. Read-outs that look alike come from different tables or passages of the source.

For `CCN[C@@H]1C[C@H](N)[C@@H](O[C@H]2OC(CN)=CC[C@H]2N)[C@@H](O)[C@H]1O[C@H]1OC[C@](C)(O)[C@H](NC)[C@H]1O` [1-N-ethyl-5-episisomicin], the “antibacterial activity / spectrum” value in experiment [1] (general statement, some compared with parent antibiotics) is recorded as “enhanced antibacterial activity”.
In the case of `CN[C@@H]1[C@@H](O)[C@@H](O[C@@H]2[C@H](O)[C@H](O[C@H]3OC(CN)=CC[C@H]3N)[C@@H](N)C[C@H]2N)OC[C@@H]1O` [5-epi-Antibiotic 66-40D], in experiment [2], the “antibacterial activity in standard dilution tests” value is “active against gram positive bacteria (e.g. Staphylococcus aureus) and gram negative bacteria (e.g. Escherichia coli and Pseudomonas aeruginosa)”.
What is called MIC is the lowest concentration that inhibits growth of the organism. On to `CN[C@@H]1[C@@H](O)[C@@H](O[C@@H]2[C@@H](O)[C@H](O[C@H]3O[C@H]([C@H](C)N)CC[C@H]3N)[C@@H](N)C[C@H]2N)OC[C@]1(C)O` [gentamicin C2a], for which the “activity relative to the gentamicin C complex” value in experiment [1] (as the free base, % of the activity of the gentamicin C complex) is recorded as “about 74%”. In addition, the “antibacterial spectrum in vitro” value in experiment [1] was “substantially the same antibacterial spectrum in vitro as do gentamicin C1, C1a and C2”. Also, the minimum inhibitory concentration (MIC) turned out to be 0.1 µg/mL (≈ 0.216 µM) against Bacillus subtilis 663; 0.3 µg/mL (≈ 0.647 µM) in the experiment on Escherichia coli (setting [3]); 7.5 µg/mL (≈ 16.2 µM) in the experiment with Escherichia coli (setting [4]); 17.5 µg/mL (≈ 37.8 µM) in the experiment with Escherichia coli (setting [5]); 3 µg/mL (≈ 6.47 µM) in the experiment with Pseudomonas aeruginosa (setting [6]); 0.8 µg/mL (≈ 1.73 µM) in the experiment with Pseudomonas aeruginosa (setting [7]). For the same compound, the MIC in the experiment with Pseudomonas aeruginosa (setting [8]) is 0.3 µg/mL (≈ 0.647 µM); against Pseudomonas aeruginosa (setting [9]), more than 25 µg/mL; against Pseudomonas aeruginosa (setting [10]), more than 25 µg/mL; with Salmonella typhi. B., 0.3 µg/mL (≈ 0.647 µM); in the experiment with Staphylococcus aureus (Staphylococcus aureus, strain 6538P, read-out: MIC), 0.3 µg/mL (≈ 0.647 µM); in the experiment on Staphylococcus aureus (strain 59N) it was 0.3 µg/mL (≈ 0.647 µM). Moreover, the MIC with Staphylococcus aureus (strain Ziegler) stood at 0.3 µg/mL (≈ 0.647 µM); with Klebsiella pneumoniae, 17.5 µg/mL (≈ 37.8 µM); with Klebsiella pneumoniae (setting [11]), 0.8 µg/mL (≈ 1.73 µM).
`CNC[C@@H]1CC[C@@H](N)[C@@H](O[C@H]2[C@H](O)[C@@H](O[C@H]3OC[C@](C)(O)[C@H](NC)[C@H]3O)[C@H](N)C[C@@H]2N)O1` [gentamicin C2b]: in experiment [1], the “antibacterial spectrum in vitro” value is “substantially the same antibacterial spectrum in vitro as do gentamicin C1, C1a and C2”. Also, the MIC against Bacillus subtilis 663 is less than 0.05 µg/mL; against Escherichia coli (setting [3]) it was 0.075 µg/mL (≈ 0.162 µM); in the experiment with Escherichia coli (setting [4]), 7.5 µg/mL (≈ 16.2 µM); in the experiment with Escherichia coli (setting [5]), more than 25 µg/mL; against Pseudomonas aeruginosa (setting [6]) it was 0.3 µg/mL (≈ 0.647 µM); against Pseudomonas aeruginosa (setting [7]) it was 0.3 µg/mL (≈ 0.647 µM). In addition, the minimal inhibitory concentration (MIC) in the experiment with Pseudomonas aeruginosa (setting [8]) was 0.075 µg/mL (≈ 0.162 µM); in the experiment on Pseudomonas aeruginosa (setting [9]), 17.5 µg/mL (≈ 37.8 µM); with Pseudomonas aeruginosa (setting [10]) it was more than 25 µg/mL; against Salmonella typhi. B., 0.3 µg/mL (≈ 0.647 µM); in the experiment with Staphylococcus aureus (Staphylococcus aureus, strain wood, read-out: MIC), 0.075 µg/mL (≈ 0.162 µM); in the experiment with Staphylococcus aureus (strain 59N) it was 0.075 µg/mL (≈ 0.162 µM). Besides, the MIC with Staphylococcus aureus (strain Ziegler) came out at 0.075 µg/mL (≈ 0.162 µM); with Klebsiella pneumoniae (setting [11]), 0.075 µg/mL (≈ 0.162 µM); with Klebsiella pneumoniae (strain 3694, gentamicin resistant, Mueller-Hinton broth, read-out: MIC), 17.5 µg/mL (≈ 37.8 µM).

Values taken from patent US4000261A, “5-Epi-4,6-di-O-(aminoglycosyl)-2-deoxystreptamines, methods for their manufacture and intermediates useful therein, methods for their use as antibacterial agents and compositions useful therefor” (priority 1975, dated 1976).
